Measured values reported in patent US10597388B2, “Pyridazinone herbicides” (FMC CORPORATION, priority 2014, dated 2020).

Legend:
Assay in all cases: Test D controlled growth environment herbicide test, pre- and postemergence
Format in all cases: in vivo
[1] = test system: wheat, winter (winter wheat, Triticum aestivum)
Source text: (§1) Seeds of plant species selected from bluegrass (annual bluegrass, Poa annua), blackgrass (Alopecurus myosuroides), Canada thistle (Cirsium arvense), canarygrass (Phalaris minor), chickweed (common chickweed, Stellaria media), geranium, cutleaf (cutleaf geranium, Geranium dissectum), galium (catchweed bedstraw, Galium aparine), bromegrass, downy (downy bromegrass, Bromus tectorum), field poppy (Papaver rhoeas), field violet (Viola arvensis), foxtail, green (green foxtail, Setaria viridis), deadnettle (henbit deadnettle, Lamium amplexicaule), ryegrass, Italian (Italian ryegrass, Lolium multiflorum), kochia (Kochia scoparia), lambsquarters (Chenopodium album), oilseed rape (Brassica napus), pigweed (Amaranthus retroflexus), chamomile (scentless chamomile, Matricaria inodora), Russian thistle (Salsola kali), speedwell (bird's-eye speedwell, Veronica persica), barley, spring (spring barley, Hordeum vulgare), wheat, spring (spring wheat, Triticum aestivum), buckwheat, wild (wild buckwheat, Polygonum convolvulus), mustard, wild (wild mustard, Sinapis arvensis), oat, wild (wild oat, Avena fatua), radish, wild (wild radish, Raphanus raphanistrum), windgrass (Apera spica-venti), barley, winter (winter barley, Hordeum vulgare), and wheat, winter (winter wheat, Triticum aestivum) were planted into a silt loam soil and treated preemergence with test chemicals formulated in a non-phytotoxic solvent mixture which included a surfactant.
(§2) At the same time, these species were planted in pots containing Redi-Earth® planting medium (Scotts Company, 14111 Scottslawn Road, Marysville, Ohio 43041) comprising spaghnum peat moss, vermiculite, wetting agent and starter nutrients and treated with postemergence applications of the test chemicals formulated in the same manner. Plants ranged in height from 2 to 18 cm (1- to 4-leaf stage). Treated plants and controls were maintained in a controlled growth environment for 14 to 21 d after which time all species were compared to controls and visually evaluated. Plant response ratings, summarized in Table D, are based on a scale of 0 to 100 where 0 is no effect and 100 is complete control. A dash (-) response means no test result.

[2] = test system: speedwell (bird's-eye speedwell, Veronica persica)
Source text: as §1, §2

[3] = test system: barley, winter (winter barley, Hordeum vulgare)
Source text: as §1, §2

[4] = test system: windgrass (Apera spica-venti)
Source text: as §1, §2

[5] = test system: blackgrass (Alopecurus myosuroides)
Source text: as §1, §2

[6] = test system: pigweed (Amaranthus retroflexus)
Source text: as §1, §2

[7] = test system: deadnettle (henbit deadnettle, Lamium amplexicaule)
Source text: as §1, §2

[8] = test system: galium (catchweed bedstraw, Galium aparine)
Source text: as §1, §2

kochia (Kochia scoparia) = test system: kochia (Kochia scoparia)
Source text: as §1, §2

[9] = test system: ryegrass, Italian (Italian ryegrass, Lolium multiflorum)
Source text: as §1, §2

[10] = test system: chickweed (common chickweed, Stellaria media)
Source text: as §1, §2

[11] = test system: foxtail, green (green foxtail, Setaria viridis)
Source text: as §1, §2

[12] = test system: lambsquarters (Chenopodium album)
Source text: as §1, §2

[13] = Postemergence, 31 g ai/ha, scale 0 to 100 (0 no effect, 100 complete control)
[14] = Postemergence, 125 g ai/ha, visual rating on scale 0 (no effect) to 100 (complete control), 14 to 21 d
[15] = Postemergence, 250 g ai/ha, scale 0 to 100 (0 no effect, 100 complete control)
[16] = Preemergence, 62 g ai/ha, scale 0 to 100 (0 no effect, 100 complete control)
[17] = Preemergence, 125 g ai/ha, scale 0 to 100 (0 no effect, 100 complete control)
[18] = Preemergence, 250 g ai/ha, scale 0 to 100 (0 no effect, 100 complete control)
[19] = postemergence, 62 g ai/ha, scale 0 to 100, 0 no effect, 100 complete control

## CC(=O)Oc1c(C)nn(C)c(=O)c1-c1c(C)sc2ccc(C)cc12 [Compound 25]
[1]; [13]
  Wheat, Winter plant response rating: 0
[1]; [14]
  Plant response rating, Wheat, Winter: 5
[1]; [15]
  Plant response rating, Wheat, Winter: 20
[1]; Preemergence, 31 g ai/ha
  Plant response rating (scale of 0 to 100), Wheat, Winter: 0
[1]; [16]
  Plant response rating, Wheat, Winter: 0
[1]; [17]
  Plant response rating, Wheat, Winter: 0
[1]; [18]
  Plant response rating, Wheat, Winter: 20
[1]; [19]
  Plant response rating, Wheat, Winter: 0
[2]; [13]
  Speedwell plant response rating: 10
[2]; [14]
  Plant response rating, Speedwell: 25
[2]; [15]
  Plant response rating, Speedwell: 80
[2]; Preemergence, 31 g ai/ha
  Plant response rating (scale of 0 to 100), Speedwell: 35
[2]; [16]
  Plant response rating, Speedwell: 80
[2]; [17]
  Plant response rating, Speedwell: 95
[2]; [18]
  Plant response rating, Speedwell: 100
[2]; [19]
  Plant response rating, Speedwell: 15
[3]; [13]
  Plant response rating, Barley, Winter: 0
[3]; [14]
  Plant response rating, Barley, Winter: 0
[3]; [15]
  Plant response rating, Barley, Winter: 10
[3]; Preemergence, 31 g ai/ha
  Plant response rating (scale of 0 to 100), Barley, Winter: 0
[3]; [16]
  Plant response rating, Barley, Winter: 0
[3]; [17]
  Plant response rating, Barley, Winter: 5
[3]; [18]
  Barley, Winter plant response rating: 20
[3]; [19]
  Plant response rating, Barley, Winter: 0
[4]; [13]
  Windgrass plant response rating: 70
[4]; [14]
  Plant response rating, Windgrass: 85
[4]; [15]
  Plant response rating, Windgrass: 85
[4]; Preemergence, 31 g ai/ha
  Plant response rating (scale of 0 to 100), Windgrass: 75
[4]; [16]
  Plant response rating, Windgrass: 85
[4]; [17]
  Plant response rating, Windgrass: 100
[4]; [18]
  Plant response rating, Windgrass: 100
[4]; [19]
  Plant response rating, Windgrass: 75
[5]; [13]
  Blackgrass plant response rating: 65
[5]; [14]
  Plant response rating, Blackgrass: 80
[5]; [15]
  Plant response rating, Blackgrass: 80
[5]; Preemergence, 31 g ai/ha
  Plant response rating (scale of 0 to 100), Blackgrass: 85
[5]; [16]
  Plant response rating, Blackgrass: 90
[5]; [17]
  Plant response rating, Blackgrass: 90
[5]; [18]
  Blackgrass plant response rating: 95
[5]; [19]
  Plant response rating, Blackgrass: 75
[6]; [13]
  Pigweed plant response rating: 80
[6]; [14]
  Plant response rating, Pigweed: 95
[6]; [15]
  Plant response rating, Pigweed: 100
[6]; Preemergence, 31 g ai/ha
  Plant response rating (scale of 0 to 100), Pigweed: 100
[6]; [16]
  Plant response rating, Pigweed: 100
[6]; [17]
  Plant response rating, Pigweed: 100
[6]; [18]
  Plant response rating, Pigweed: 100
[6]; [19]
  Plant response rating, Pigweed: 100
[7]; [13]
  Deadnettle plant response rating: 5
[7]; [14]
  Plant response rating, Deadnettle: 20
[7]; [15]
  Plant response rating, Deadnettle: 45
[7]; Preemergence, 31 g ai/ha
  Plant response rating (scale of 0 to 100), Deadnettle: 0
[7]; [16]
  Plant response rating, Deadnettle: 0
[7]; [17]
  Plant response rating, Deadnettle: 0
[7]; [18]
  Plant response rating, Deadnettle: 50
[7]; [19]
  Plant response rating, Deadnettle: 10
[8]; [13]
  Galium plant response rating: 100
[8]; [14]
  Plant response rating, Galium: 100
[8]; [15]
  Plant response rating, Galium: 100
[8]; Preemergence, 31 g ai/ha
  Plant response rating (scale of 0 to 100), Galium: 70
[8]; [16]
  Plant response rating, Galium: 90
[8]; [17]
  Plant response rating, Galium: 95
[8]; [18]
  Plant response rating, Galium: 100
[8]; [19]
  Plant response rating, Galium: 100
Kochia (Kochia scoparia); [13]
  Kochia plant response rating: 90
Kochia (Kochia scoparia); [14]
  Plant response rating, Kochia: 100
Kochia (Kochia scoparia); [15]
  Plant response rating, Kochia: 100
Kochia (Kochia scoparia); Preemergence, 31 g ai/ha
  Plant response rating (scale of 0 to 100), Kochia: 0
Kochia (Kochia scoparia); [16]
  Plant response rating, Kochia: 10
Kochia (Kochia scoparia); [17]
  Plant response rating, Kochia: 40
Kochia (Kochia scoparia); [18]
  Plant response rating, Kochia: 100
Kochia (Kochia scoparia); [19]
  Plant response rating, Kochia: 95
[9]; [13]
  Ryegrass, Italian plant response rating: 75
[9]; [14]
  Plant response rating, Ryegrass, Italian: 85
[9]; [15]
  Plant response rating, Ryegrass, Italian: 90
[9]; Preemergence, 31 g ai/ha
  Plant response rating (scale of 0 to 100), Ryegrass, Italian: 95
[9]; [16]
  Plant response rating, Ryegrass, Italian: 100
[9]; [17]
  Plant response rating, Ryegrass, Italian: 100
[9]; [18]
  Plant response rating, Ryegrass, Italian: 100
[9]; [19]
  Plant response rating, Ryegrass, Italian: 85
[10]; [13]
  Chickweed plant response rating: 98
[10]; [14]
  Plant response rating, Chickweed: 100
[10]; [15]
  Plant response rating, Chickweed: 100
[10]; Preemergence, 31 g ai/ha
  Plant response rating (scale of 0 to 100), Chickweed: 95
[10]; [16]
  Plant response rating, Chickweed: 100
[10]; [17]
  Plant response rating, Chickweed: 100
[10]; [18]
  Plant response rating, Chickweed: 100
[10]; [19]
  Plant response rating, Chickweed: 98
[11]; [13]
  Foxtail, Green plant response rating: 60
[11]; [14]
  Plant response rating, Foxtail, Green: 70
[11]; [15]
  Plant response rating, Foxtail, Green: 75
[11]; Preemergence, 31 g ai/ha
  Plant response rating (scale of 0 to 100), Foxtail, Green: 35
[11]; [16]
  Plant response rating, Foxtail, Green: 90
[11]; [17]
  Plant response rating, Foxtail, Green: 95
[11]; [18]
  Plant response rating, Foxtail, Green: 100
[11]; [19]
  Plant response rating, Foxtail, Green: 65
[12]; [13]
  Lambsquarters plant response rating: 90
[12]; [14]
  Plant response rating, Lambsquarters: 90
[12]; [15]
  Plant response rating, Lambsquarters: 95
[12]; Preemergence, 31 g ai/ha
  Plant response rating (scale of 0 to 100), Lambsquarters: 80
[12]; [16]
  Plant response rating, Lambsquarters: 95
[12]; [17]
  Plant response rating, Lambsquarters: 98
[12]; [18]
  Plant response rating, Lambsquarters: 100
[12]; [19]
  Plant response rating, Lambsquarters: 90
